# Results taken from patent US20160113931A1, “Method of treating and/or preventing neurodegenerative diseases” (University of Macau, priority 2014, published 2016).
# Entries after “also recorded” stand apart in the source; their conditions may differ.
# What was measured:
# [1] = test system: oligodendroglial progenitor cells (OPCs); experiment: OPC proliferation (EdU incorporation assay and Ki67 immunostaining); type: cell-based, rat; conditions: 2 days
# Method: FIGS. 10A, 10B and 10C show the effects of BHDPC in oligodendroglial progenitor cells (OPCs) proliferation. OPCs were incubated with the drugs at indicated concentrations in proliferation medium for 2 days. (FIG. 10A) The cell viability was measured by MTT assay.
# Purified OPC cultures were prepared as described. In brief, primary rat mixed glial cell cultures were isolated from whole brains of postnatal day (P) 2 rats, dissociated into single cells, and cultured into poly-D-lysine (PDL) coated T75 tissue culture flasks. Plating medium consisted of Dulbecco's modified Eagle's medium (DMEM, Invitrogen, Carlsbad, Calif.) supplemented with 10% fetal bovine serum (FBS; Invitrogen, Carlsbad, Calif.), […]. Tissue cultures were maintained at 37° C. in a humidified 5% CO2 incubator, and medium was exchanged every 3 days. Once confluent (after 10-15 days), microglia were separated by mechanical shaking of flasks on a rotary shaker for […] at 250 rpm and removed. […]
# OPC was incubated with BHDPC or 0.1% DMSO in the proliferation medium for two days. […] Photographs were captured by fluorescence microscope.
# To test the effect of BHDPC on primary OPC culture, OPCs were treated with BHDPC for 48 h and the cell viability was determined using MTT assay. […]
# [2] = test system: primary cortical neurons; experiment: MPP+-induced neuronal death in primary cortical neurons (LDH release); type: cell-based, rat; conditions: 2 h pre-treatment, 200 μM MPP+ 24 h
# Method: Primary culture of cortical neurons was prepared from embryonic day 18±0.5 Sprague-Dawley rats. One day after seeding, primary cortical neurons were treated with 10 and 30 μM BHDPC for 14 days. Fourteen days following BHDPC treatment, primary cortical neurons cultured on glass coverslips (Thermo Scientific) were fixed with 4% paraformaldehyde for 15 min. Following fixation, neurons were permeabilized with 0.1% Triton X-100 in Tris-buffered saline for 7 min, and blocked with 4% bovine serum albumin and 2% goat serum for 1 h. α-tubulin and MAP2 were incubated at 1:400 dilution for 1 h at room temperature and overnight at 4° C. respectively. Following primary antibody incubation, neurons were incubated with Alexa Flour 488 or 568 secondary antibodies (anti-rabbit or anti-mouse) at 1:400 dilution for 1 h at room temperature. […] Fluorescence intensity was measured using Image J.
# Cell cytotoxicity was also determined by measuring the activity of LDH released into the incubation medium when cellular membranes were damaged. […] After treatment, the released LDH activity in the medium was measured according to the instructions of the Cytotoxicity Detection Kit (Roche Applied Science, Mannheim, Germany). Absorbance at 490 nm was measured using SpectraMax M5. […]
# LDH release was measured at 24 hours after the MPP^+ challenge.
# [3] = test system: zebrafish; experiment: MPTP-induced dopaminergic neuron loss in zebrafish (TH whole-mount immunostaining); type: in vivo, Danio rerio; conditions: for TH+ density, percentage of the control group: 360 μM MPTP 48 h, 1 dpf zebrafish
# Method: Zebrafish at 1 dpf were exposed to BHDPC (3, 10, 30 μM) with or without MPTP for 48 h. Then fish were fixed for whole mount immunostaining. The morphology change of dopaminergic neurons in zebrafish brain was indicated by immunostaining with antibody against tyrosine hydroxylase (TH). Statistical analysis of TH density was accessed in each 10 fish/group. […] Zebrafish at 1 dpf were exposed to different concentrations of BHDPC with or without MPTP for 48 h. Then fish were fixed for whole mount immunostaining.
# The AB strain of wild type zebrafish (Danio rerio) was maintained as described in the Zebrafish Handbook. Zebrafish were staged by days post fertilization […]. For breeding, groups of male and female (3:2) adult zebrafish were placed in 10-L plastic aquarium equipped with spawning nets in the evening. In the following morning, eggs were collected from the breeding group tanks. Normally developed fertilized eggs were selected under a stereomicroscope for further studies. The MPTP manipulation was performed with appropriate safety precautions and all MPTP-containing water was bleached.
# Whole-mount immunostaining in zebrafish was performed as previously described. 3 dpf Zebrafish larvae were fixed with 4% paraformaldehyde in PBS for 30 min, […] (TH) staining was performed as previously described. Briefly, zebrafish were fixed in 4% paraformaldehyde in PBS for 5 h. Fixed samples were blocked (2% lamb serum and 0.1% BSA in PBST) for 1 h at room temperature. A mouse monoclonal anti-tyrosine hydroxylase (TH) antibody (Millipore, Billerica, MD, USA) was used as the primary antibody and incubated with samples overnight at 4° C. On the next day, samples were washed six times with PBST (each wash lasted 30 min), followed by incubation with Alexa Fluor® 488 goat anti-mouse antibodies. After immunostaining, zebrafish were mounted with 3.5% methylcellulose and photographed. Semi-quantification of the area of TH^+ cells was assessed by an investigator, unaware of the drug treatment, using Image-J software. Results are expressed as percentage of area of TH^+ cells in untreated normal control groups.
# In this example, the in vivo animal model was used to determine the neuroprotective effect of BHDPC. Anti-tyrosine hydroxylase (TH) whole mount immunostaining was used to determine dopaminergic neuronal populations in zebrafish larvae (FIG. 15A). TH activity is the key enzyme responsible for dopamine biosynthesis in the CNS. […] The dopamine reuptake inhibitor nomifensine (Nom), which protected against MPTP-induced neurotoxicity in vivo was used as a positive control. The treatment of larvae with 30 μM of nomifensine, a positive control drug attenuated MPTP-induced neurotoxicity, with TH^+ density […] by 30% compared to the MPTP group.
# L-deprenyl, which is a substituted phenethylamine used in treatment of early Parkinson's disease, was used as a positive control.
structure (smiles),measurement,setting,value
"COc1cc(C2C(C(=O)OCc3ccccc3)=C(C)Nc3nnnn32)ccc1O (centres unmarked) [BHDPC, benzyl 7-(4-hydroxy-3-methoxyphenyl)-5-methyl-4,7-dihydrotetrazolo[1,5-a]pyrimidine-6-carboxylate]",ratio of EdU+/oligo2 cells,[1]; 30 μM,increased
same,ratio of Ki67+/oligo2 cells,[1],increased
same,MPP+-induced neuronal death (LDH release),[2],prevented MPP^+-induced neuronal death
same,"TH+ density, percentage of the control group",[3]; 3 μM,66%
same,"TH+ density, percentage of the control group",[3]; 10 μM,74%
same,"TH+ density, percentage of the control group",[3]; 30 μM,90%
same,MPTP-induced TH+ density decrease (FIG. 15B),"[3]; 3 and 10 μM, MPTP 48 h, dose-dependent",rescue dramatically; also recorded: protected against MPTP-induced DA neuron loss
same,toxicity in the vital organs,[3]; BHDPC treated zebrafish compared to control groups,No toxicity was observed
